Experimental data as given in US10774083B2, “Heterocyclic amide compound” (TAKEDA PHARMACEUTICAL COMPANY LIMITED, priority 2016, dated 2020).

How the values were obtained:
[1] = biological target: T1, human PRS protein (His-Avi-hEPRS (998-1512)) (Homo sapiens, UniProt P07814); experiment: PRS inhibitory activity ([32P]pyrophosphate exchange enzyme assay); assay type: biochemical; conditions: 300 nM test compound; read-out: inhibitory rate (%) of PRS
T1 construct: to construct His-Avi-hEPRS (998-1512) expression plasmid; His tag (N); Avi tag (N); TEV cleavage site (ENLYFQG, then S; inferred from the forward primer hEPRS-TEV-NheF) (N); made in house; host or cells: E. coli BL21(DE3)
T1 sequence (P07814 998-1512 limits assumed): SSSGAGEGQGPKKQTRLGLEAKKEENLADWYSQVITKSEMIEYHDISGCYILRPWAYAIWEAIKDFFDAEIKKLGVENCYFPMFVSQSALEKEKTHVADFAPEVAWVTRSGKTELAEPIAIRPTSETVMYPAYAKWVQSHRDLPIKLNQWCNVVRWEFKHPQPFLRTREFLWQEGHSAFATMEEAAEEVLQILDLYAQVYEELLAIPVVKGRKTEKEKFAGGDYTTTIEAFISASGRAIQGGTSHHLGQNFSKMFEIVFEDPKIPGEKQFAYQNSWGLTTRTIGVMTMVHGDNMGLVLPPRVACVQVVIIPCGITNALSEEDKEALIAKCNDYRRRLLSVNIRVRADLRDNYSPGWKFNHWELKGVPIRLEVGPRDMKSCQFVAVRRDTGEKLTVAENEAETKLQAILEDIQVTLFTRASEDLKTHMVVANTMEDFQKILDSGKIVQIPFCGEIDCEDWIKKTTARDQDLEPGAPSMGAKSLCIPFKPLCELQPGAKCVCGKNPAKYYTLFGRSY
Outline: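 Compound was pre-incubated 60 min with 40 nM His-Avi-hEPRS (998-1512) (stock, E. coli-expressed) in Tris pH 7.5/KCl/DTT/Tween/MgCl2. Reaction began with substrate mix containing 300 μM ATP, 160 μM L-proline, 400 μM [32P]pyrophosphate (stock levels) and ran 30 min at room temperature. Charcoal-bound radioactivity was counted; inhibition was relative to no-reaction control.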

[2] = system: human ovarian cancer cells A2780; experiment: proliferation inhibitory activity against human ovarian cancer cell A2780 (CellTiter-Glo); assay type: cell-based; conditions: A2780, 72 h, 1 μM test compound, 3 days of culture, read-out: proliferation inhibitory rate (%) of A2780 cells
Outline: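 A2780 cells in RPMI-1640 with 10% FBS, compound added the day after seeding and cultured 3 days. Viability by CellTiter-Glo luminescence. Inhibition (%) calculated with cell-free wells as 100% inhibition.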

Cc1cc(N2CC[C@@](C#N)(C3CC3)C2=O)cc(C(=O)NCc2cc(F)cc(-c3cnn(C)c3)c2)n1 [Example 159, 4-((3S)-3-cyano-3-cyclopropyl-2-oxopyrrolidin-1-yl)-N-(3-fluoro-5-(1-methyl-1H-pyrazol-4-yl)benzyl)-6-methylpyridine-2-carboxamide]
inhibition at 0.3 µM [1]: 101% | inhibition at 1 µM [2]: 96%
